Each block holds one compound with its values, some of them ahead of it.
Columns and labels:
[1] = system: EGFR, HER2, Her3 and ErbB4; test: Western blotting of EGFR family activation and downstream Akt/Erk in BT474 cells; assay type: cell-based, human; conditions: 2 hours; for phosphorylation (activation) of EGFR family: ibrutinib 0.05 or 0.1 μM, AVL-292 0.1 μM
Protocol: (§1) Immunoblotting was performed essentially as described previously. Equal amounts of proteins were used. Antibodies used were anti-EGFR (1:1000,), anti-HER2 (1:1000,), anti-ERBB3, ERBB4 antibody, anti-BTK, anti-AKT, ERIK, anti-PLCγ1, PLCγ2 and anti-PARP (1:1000, cell signaling), anti-Flag antibody (1:1000, Sigma), anti-rabbit IgG-HRP and mouse IgG-HRP (1:5000, Jackson ImmunoResearch).

BTK-C = target: T1, BTK-C (Homo sapiens, UniProt Q06187); test: Inhibition of BTK-C kinase activity / activating phosphorylation (FIG. 8A-C); assay type: cell-based
T1 construct: Flag; expressed in transfected cells; host or cells: SKBR3-BTK-C (SKBR3 human breast cancer cells expressing BTK-C)
T1 sequence (Q06187 1-693 isoform Q06187-2): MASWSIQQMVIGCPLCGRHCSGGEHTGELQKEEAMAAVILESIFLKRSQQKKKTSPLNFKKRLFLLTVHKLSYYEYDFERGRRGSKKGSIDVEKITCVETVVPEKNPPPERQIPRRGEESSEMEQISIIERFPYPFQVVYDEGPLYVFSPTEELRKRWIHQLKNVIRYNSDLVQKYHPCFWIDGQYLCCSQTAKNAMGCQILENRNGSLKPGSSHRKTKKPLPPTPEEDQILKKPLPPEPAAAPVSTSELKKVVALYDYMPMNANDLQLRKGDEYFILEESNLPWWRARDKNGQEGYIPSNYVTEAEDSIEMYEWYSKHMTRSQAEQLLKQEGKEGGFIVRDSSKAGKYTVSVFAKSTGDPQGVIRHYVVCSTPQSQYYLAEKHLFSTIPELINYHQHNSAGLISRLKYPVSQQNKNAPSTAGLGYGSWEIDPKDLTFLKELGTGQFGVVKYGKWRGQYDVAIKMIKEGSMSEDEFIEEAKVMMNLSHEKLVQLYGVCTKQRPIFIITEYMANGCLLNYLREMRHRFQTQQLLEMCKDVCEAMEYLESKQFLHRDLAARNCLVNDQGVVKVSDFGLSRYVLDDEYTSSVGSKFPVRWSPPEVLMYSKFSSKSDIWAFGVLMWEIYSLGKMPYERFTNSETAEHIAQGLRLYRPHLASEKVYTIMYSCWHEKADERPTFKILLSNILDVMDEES

breast cancer cells = conditions: cited from earlier work
BT474 cells [2] = test: Cell growth assay (live cell count), monolayer culture; assay type: cell-based, human; conditions: 0.01 μM, 3 days
Description: (§2) For live cell counts, cell growth on 96-well plates were fixed 4% formaldehyde and counterstained with Hoechst 33342 for nuclei.

[3] = system: HER2-positive breast cancer cells; test: Apoptosis assay (Alexa Fluor 488 annexin V)
[4] = system: HER2-positive breast cancer cells; test: Cell growth assay (live cell count); assay type: cell-based; conditions: Homo sapiens, 72 h; 3 days of culture; read-out: IC50 for effect on HER2-positive breast cancer cells
Description: as §2

[5] = system: BT474 human breast cancer cells; test: Cell cycle analysis (propidium iodide, flow cytometry); assay type: cell-based
Protocol: After trypsinized, cells were collected and washed with cold PBS. Cells were fixed with 70% ethanol, washed and stained with PI/Triton X-100 staining solution (0.1% triton X-100, 2 μg/ml PI and 0.2 mg/ml DNAse-free RNAse) for 30 min. Samples were analyzed by flow cytometry.

SKBR3 cells [6] = test: Cell growth assay (live cell count); assay type: cell-based, human; conditions: 1 μM, 3 days
Description: as §2

xenografts of SKBR3 = system: xenografts of SKBR3
Protocol: NOD/SCID mice were purchased from Jackson Lab (The Jackson Laboratory, Bar Harbor, Me., USA). All mouse procedures were approved by the Animal Care and Use Committees of SUNY Albany and performed in accordance with institutional policies.
For xenograft tumor studies, 1×10^6 SKBR3 cells were suspended in 50 μl Matrigel (BD Biosciences) diluted 1:2 with DMEM and injected into mammary fat pad. Treatment began when tumors were palpable. […] The tumor volume in mm^3 is calculated by the formula: volume=(width)^2×length/2 every 7 days.

AKT = test: Immunoblots of NRG1 effect on HER2, AKT and ERK activation in BT474 and SkBR3 cells; assay type: cell-based, human; conditions: 2 h
Protocol: as §1

[7] = system: HER2-positive breast cancer cells; test: Live cell count with NRG1 or EGF (growth factor driven rescue)
SKBR3 cells [8] = test: Nine days NRG1 co-treatment, crystal violet staining; assay type: cell-based, human; conditions: 9 days, drug 1 uM, NRG1 50 ng/ml
Protocol: (§3) Cells were cultured in 6-well plates for indicated days. Cells were fixed with 3.7% paraformaldehyde for 10 min and washed with PBS. After wash, cells were stained with 0.05% CV for 30 min Whole plate was washed with tape water. Dry plate was added with 0.5 ml methanol to solubilize the dye. Taking an aliquot to 96-well plate and reading CV stain with OD 540. Tumorospheres were counted under low magnification.

BT474 cells [9] = test: as above; assay type: cell-based, human; conditions: 9 days, drug 1 uM, NRG1 50 ng/ml
Protocol: as §3

BTK-C activating phosphorylation (BTK-C; FIG. 8C): inhibit BTK-C activating phosphorylation
Compound: C=CC(=O)Nc1cccc(Nc2nc(Nc3ccc(OCCOC)cc3)ncc2F)c1 [AVL-292, N-(3-((5-fluoro-2((4-(2-methoxyethoxy)phenyl)amino)pyrimidin-4-yl)amino)phenyl)acrylamide]
phosphorylation (activation) of EGFR family [1]: does not block EGFR family signaling pathway activation
inhibition of BTK-C kinase activity (BTK-C; compared with ibrutinib): inhibit BTK-C kinase activity to the same degree as ibrutinib

Compound: Cc1c(NC(=O)c2ccc(C(C)(C)C)cc2)cccc1-c1cn(C)c(=O)c(Nc2ccc(C(=O)N3CCOCC3)cc2)n1 [CGI-1746]
phosphorylation (activation) of EGFR family [1]: but not AVL-292 and CGI-1746, efficiently blocks activation of EGFR, HER2, ErbB3, and ErbB4

Compound: C/C(O)=C(\C#N)C(=O)Nc1cc(Br)ccc1Br [LFM-A13]
apoptosis levels (breast cancer cells): increase apoptosis levels

Compound: C=CC(=O)N1CCC[C@@H](n2nc(-c3ccc(Oc4ccccc4)cc3)c3c(N)ncnc32)C1 [ibrutinib]
cell population, % of control (BT474 cells [2]; BT474 monolayer): 30 % of control
apoptosis induction compared with lapatinib ([3]; HER2-positive breast cancer cells): 1.5 fold
IC50 [4]: 30 nM
decrease in the number of cells in the S phase ([5]; 0.03 μM, compared with controls): 50%
reduction of cell numbers (SKBR3 cells [6]): more than 80%
tumor volume smaller than vehicle control / inhibition of tumor growth (xenografts of SKBR3; 12 mg/kg/day p.o., day 28): 45%

Compound: CS(=O)(=O)CCNCc1ccc(-c2ccc3ncnc(Nc4ccc(OCc5cccc(F)c5)c(Cl)c4)c3c2)o1 [lapatinib]
reduction of cell numbers (BT474 cells [2]; monolayer): fails to reduce HER2-positive breast cancer cell numbers significantly
Akt and Erk phosphorylation / downstream signaling [1]: inhibits both AKT and ERK phosphorylation
re-activation of AKT by NRG1 (AKT; co-treatment with NRG1 50 ng/ml): NRG1 re-activates AKT without activation of HER2
activation of HER2, AKT and ERK (AKT; drug alone): blocked
number of apoptotic cells ([3]; 0.05 or 0.1 μM, 24 hours): increase in the number of apoptotic cells
G1-S arrest ([5]; 24 hours): appreciable G1-S arrest
rescue from growth inhibition by NRG1 ([7]; 50 ng/ml of NRG1, 3 days): NRG1 application is able to rescue
cell growth suppression ([7]; drug without growth factor, 3 days): potently suppresses cell growth
potency in SKBR3 tumor xenograft compared with ibrutinib 12 mg/kg/day (xenografts of SKBR3; lapatinib 75 mg/kg/day p.o.): less potent
drug resistance after NRG1 co-treatment (SKBR3 cells [8]): yields cells that exhibit lapatinib resistance
drug resistance after NRG1 co-treatment (BT474 cells [9]): yields cells that exhibit lapatinib resistance

Source: patent US10668068B2, “Treating cancer with drug combinations” (The Research Foundation for The State University of New York, priority 2015, dated 2020)
